Values of other authors, collected in patent US6676966B1, “Extended release metformin hydrochloride formulations” (Intellipharmaceutics Corp., priority 2000, dated 2004).
Structures can show the parent of a compound that is named as a salt.

Conditions: single 850 mg immediate release tablet with food vs same tablet without food

- lower AUC in plasma with food: 25%
- lower peak concentration in plasma with food: ~40%
- prolongation of time to peak plasma concentration with food: 35 min
Compound: CN(C)C(=N)N=C(N)N [metformin, Metformin hydrochloride]
